Measured values as given in US20240374581A1, “SALT TYPES OF TRICYCLIC TETRAHYDRO ISOQUINOLINE DERIVATIVE” (JIANGSU HENGRUI PHARMACEUTICALS CO., LTD., priority 2021, published 2024).

Legend:
ERα = ERα (Homo sapiens (Human), UniProt P03372); test: Degradation of ERα in MCF-7 cells (ELISA); type: cell-based; settings: 16 to 18 h, read-out: EC50, degradation of ERα
Experimental: ERα-positive breast cancer cell line MCF-7 cells were cultured in a DMEM/F12 medium (HyClone, SH30023.01) containing 10% fetal bovine serum (Corning, 35-010-CV). […] The 48-well plate was placed in the incubator for 16 to 18 h. A 96-well plate was coated with the capture antibody from the human ERα/NR3A1 total protein assay kit (R&D, DYC5715-5). […] The plate was placed in an incubator at 26° C. overnight. On day 3, the antibody-coated 96-well plate was washed once with PBS, and 200 μL of PBS containing 1% BSA was added to each well. The plate was incubated in an incubator at 37° C. for 1.5 h to be blocked. The cell culture medium supernatant was discarded. […] A biotinylated assay antibody was diluted to 0.4 μg/mL with PBS containing 1% BSA, and then 100 μL of the assay antibody was added to each well. The plate was incubated in an incubator at 37° C. for 1 h. The plate was then washed five more times, and 100 μL of avidin-HRP diluted 200-fold with PBS containing 1% BSA was added to each well. The plate was incubated at 37° C. for 30 min.

[1] = Hygroscopicity study (DVS); type: physicochemical; settings: 25° C.
Experimental: DVS refers to dynamic vapor sorption: The measurement was conducted on SMS DVS Advantage; at 25° C., the humidity was changed as follows: 50%-95%-0%-95%-50%, in steps of 10% (5% for the last step) (specific humidity ranges are shown in corresponding patterns, and those listed here were used in most cases); the criterion was dm/dt≤0.002%.
The measurement was conducted with a Surface Measurement Systems intrinsic at 25° C., starting from 50% humidity in humidity range of 0%-95%, in steps of 10%; the criterion was dM/dT≤0.002% and TMAX of 360 min in two cycles.

[2] = Influencing factor stability study
CYP3A4 = CYP3A4 (Homo sapiens (Human), UniProt P08684); test: Time-dependent inhibition of site of metabolism of midazolam in human liver microsome CYP3A4; type: in vitro ADME
Experimental: • 1. Phosphate buffer (20×PBS, purchased from Sangon); • 2. NADPH (ACROS, A2646-71-1); • 3. Human liver microsome (Corning Gentest, Cat No. 452161, Lot No. 9050002, Donor, 36); • 4. ABI QTrap 4000 LC-MS System (AB Sciex); • 5. ZORBAX Extend-C18, 3×50 mm, 3.5 m (Agilent, USA); • 6. CYP probe substrate (midazolam, TRC, M343000/3 μM) and positive control inhibitor (verapamil, Adamas Reagent Co., Ltd, Cat No. 25904A).
A 100 mM PBS buffer was prepared. A 0.25 mg/mL microsome solution, a 7.5 mM MgCl2 and a 5 mM NADPH solution were prepared using the buffer. A 30 mM stock solution was diluted with DMSO to obtain 30 mM, 10 mM, 3 mM, 1 mM, 0.3 mM, 0.1 mM, 0.03 mM and 0 mM serial solutions I, which were further diluted 200-fold with phosphate buffer (PBS) to obtain serial test solutions II (150, 50, 15, 5, 1.5, 0.5, 0.15 and 0 μM). A midazolam working solution was diluted with PBS to 15 μM.
The serial test solutions prepared above were well mixed by shaking and aliquoted in 20 μL portions into corresponding reaction plates (+NADPH, T0 and -NADPH groups were set). Three parallel tests were set. 40 μL of the liver microsome working solution was added to each 96-well plate. 20 μL of a corresponding substrate solution was added to the TO plate. 20 μL of NADPH was added to the TO plate and +NADPH group. A timer was started, and the plates were incubated in a water bath at 37° C. After 30 min of incubation, the TO plate was taken out, and the reaction was terminated with 250 μL of an internal standard-containing ACN solution. The +NADPH group was supplemented with 20 μL of the corresponding substrate solution, and the −NADPH group was supplemented with 20 μL of the corresponding substrate solution and […]. A timer was started, and the plates were incubated in a water bath at 37° C. After 30 min of incubation, the plates were taken out, and the reactions were terminated with 250 μL of an internal standard-containing ACN solution. […]
The IC50 value of the drug for the site of metabolism of midazolam in CYP3A4 was calculated by Graphpad Prism and is shown in Table 7.

Sequence of CYP3A4 (P08684 whole entry): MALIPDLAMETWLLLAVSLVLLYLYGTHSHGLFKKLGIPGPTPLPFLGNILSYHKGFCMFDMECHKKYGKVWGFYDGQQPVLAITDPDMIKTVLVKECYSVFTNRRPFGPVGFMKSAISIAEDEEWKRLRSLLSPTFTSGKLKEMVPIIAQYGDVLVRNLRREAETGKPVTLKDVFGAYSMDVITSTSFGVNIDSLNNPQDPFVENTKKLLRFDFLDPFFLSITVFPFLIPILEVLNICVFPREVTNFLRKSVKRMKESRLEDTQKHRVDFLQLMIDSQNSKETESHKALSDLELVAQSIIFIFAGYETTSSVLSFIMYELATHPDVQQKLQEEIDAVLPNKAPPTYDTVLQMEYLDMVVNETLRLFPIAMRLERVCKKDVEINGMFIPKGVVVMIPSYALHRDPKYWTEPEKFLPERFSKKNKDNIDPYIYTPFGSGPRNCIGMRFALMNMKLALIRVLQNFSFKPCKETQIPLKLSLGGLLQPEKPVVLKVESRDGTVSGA
Sequence of ERα (P03372 whole entry): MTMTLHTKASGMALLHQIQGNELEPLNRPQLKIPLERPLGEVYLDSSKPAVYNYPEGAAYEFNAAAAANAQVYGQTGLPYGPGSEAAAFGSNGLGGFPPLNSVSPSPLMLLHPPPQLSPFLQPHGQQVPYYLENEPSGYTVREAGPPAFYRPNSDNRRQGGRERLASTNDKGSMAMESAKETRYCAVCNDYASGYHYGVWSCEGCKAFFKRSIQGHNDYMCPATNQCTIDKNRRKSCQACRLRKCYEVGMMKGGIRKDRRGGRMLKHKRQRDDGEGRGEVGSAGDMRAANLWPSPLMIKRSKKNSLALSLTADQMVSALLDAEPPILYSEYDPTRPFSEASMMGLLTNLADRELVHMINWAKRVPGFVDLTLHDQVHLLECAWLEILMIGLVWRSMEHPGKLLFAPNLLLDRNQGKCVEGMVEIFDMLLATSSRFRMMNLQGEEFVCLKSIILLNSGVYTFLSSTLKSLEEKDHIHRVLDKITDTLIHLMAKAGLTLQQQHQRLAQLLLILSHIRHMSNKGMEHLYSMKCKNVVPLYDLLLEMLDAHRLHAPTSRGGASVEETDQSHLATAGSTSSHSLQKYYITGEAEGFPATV

[2H]C1([2H])Oc2cc3c(cc2O1)[C@@H](c1ccc(NC2CN(CCCF)C2)cn1)N(CC(F)(F)CO)[C@H](C)C3 [Compound 1, 2,2-Difluoro-3-((5S,7R)-5-(5-((1-(3-fluoropropyl)azetidin-3-yl)amino)pyridin-2-yl)-7-methyl-7,8-dihydro-[1,3]dioxolo[4,5-g]isoquinolin-6(5H)-yl-2,2-d2)propan-1-ol]
DC50 (ERα): 0.00038 µM
Hygroscopicity grade ([1]; 0% RH-80.0% RH): hygroscopic
Crystal form after DVS [1]: Did not change
Hygroscopicity 0% RH-80.0% RH ([1]; DVS): 4.6%
Hygroscopicity 0.0% RH-95.0% RH ([1]; DVS): 6.7%
Crystal form ([2]; 40° C., 1 month): Amorphous form
Purity (%) ([2]; 40° C., 1 month): 95.4%
Crystal form ([2]; 40° C., 5 days): Amorphous form
Purity (%) ([2]; 40° C., 5 days): 96.7%
Crystal form ([2]; 40° C., 10 days): Amorphous form
Purity (%) ([2]; 40° C., 10 days): 96.5%
Crystal form ([2]; 60° C., 1 month): Amorphous form
Purity (%) ([2]; 60° C., 1 month): 87.6%
Crystal form ([2]; 60° C., 5 days): Amorphous form
Purity (%) ([2]; 60° C., 5 days): 95.7%
Crystal form ([2]; 60° C., 10 days): Amorphous form
Purity (%) ([2]; 60° C., 10 days): 94.2%
behaviour under the high-humidity conditions (conclusion) ([2]; 75% RH and 92.5% RH, 30 days): deliquesced
Crystal form ([2]; 75% RH, 1 month): Deliquescence
Purity (%) ([2]; 75% RH, 1 month): 96.9%
Crystal form ([2]; 75% RH, 5 days): Amorphous form
Purity (%) ([2]; 75% RH, 5 days): 97.0%
Crystal form ([2]; 75% RH, 10 days): Amorphous form
Purity (%) ([2]; 75% RH, 10 days): 97.0%
Crystal form ([2]; 92.5% RH, 1 month): Deliquescence
Purity (%) ([2]; 92.5% RH, 1 month): 97.0%
Crystal form ([2]; 92.5% RH, 5 days): Amorphous form
Purity (%) ([2]; 92.5% RH, 5 days): 96.9%
Crystal form ([2]; 92.5% RH, 10 days): Amorphous form
Purity (%) ([2]; 92.5% RH, 10 days): 97.0%
Crystal form ([2]; 4500 Lux, 1 month): Amorphous form
Purity (%) ([2]; 4500 Lux, 1 month): 71.7%
Crystal form ([2]; 4500 Lux, 5 days): Amorphous form
Purity (%) ([2]; 4500 Lux, 5 days): 94.0%
Crystal form ([2]; 4500 Lux, 10 days): Amorphous form
Purity (%) ([2]; 4500 Lux, 10 days): 89.9%
Crystal form ([2]; Initial, 0 days): Amorphous form
Purity (%) ([2]; Initial, 0 days): 97.1%
IC50 shift at 30 min (CYP3A4; human, microsomes): 0.7
IC50 (CYP3A4; pre-incubation with NADPH 30 min): 13.1 µM
IC50 (CYP3A4; pre-incubation without NADPH): 19.6 µM
